Measurements taken from the NIST ThermoML archive (doi:10.1016/j.tca.2014.02.019).

Experiment: xn = mol fraction of the nth substance listed
Conditions: 101 kPa, Liquid; for viscosity: Falling or rolling sphere viscometry; for mass density: Vibrating tube method

CCOS(=O)(=O)[O-].CC[N+]1(C)CCOCC1 [4-ethyl-4-methylmorpholinium ethyl sulfate] + O
Conditions | mass density [kg/m3] | viscosity [mPa·s]
298.15 K, x1 = 0.1255 | 1160.26 | 7.655
298.15 K, x1 = 0.2214 | 1196.87 | 20.62
298.15 K, x1 = 0.3165 | 1215.39 | 46.5
298.15 K, x1 = 0.4406 | 1229.15 | 115.6
298.15 K, x1 = 0.6319 | 1240.92 | 529.2
298.15 K, x1 = 0.7239 | 1244.69 | 686.5
298.15 K, x1 = 0.807 | 1247.34 | 2262
298.15 K, x1 = 1 | 1252.26 | –
303.15 K, x1 = 0.1255 | 1157.12 | 6.513
303.15 K, x1 = 0.2214 | 1193.61 | 16.92
303.15 K, x1 = 0.3165 | 1212.17 | 36.79
303.15 K, x1 = 0.4406 | 1226.03 | 93.81
303.15 K, x1 = 0.6319 | 1237.71 | 400.9
303.15 K, x1 = 0.7239 | 1241.43 | 533.1
303.15 K, x1 = 0.807 | 1244.19 | 1630
303.15 K, x1 = 1 | 1249.05 | –
308.15 K, x1 = 0.1255 | 1153.95 | 5.589
308.15 K, x1 = 0.2214 | 1190.35 | 14.11
308.15 K, x1 = 0.3165 | 1208.94 | 29.62
308.15 K, x1 = 0.4406 | 1222.87 | 72.42
308.15 K, x1 = 0.6319 | 1234.48 | 309.1
308.15 K, x1 = 0.7239 | 1238.23 | 408.3
308.15 K, x1 = 0.807 | 1241 | 1088
308.15 K, x1 = 1 | 1245.86 | –
313.15 K, x1 = 0.1255 | 1150.75 | 4.817
313.15 K, x1 = 0.2214 | 1187.08 | 11.93
313.15 K, x1 = 0.3165 | 1205.7 | 24.24
313.15 K, x1 = 0.4406 | 1219.69 | 57.41
313.15 K, x1 = 0.6319 | 1231.24 | 226.8
313.15 K, x1 = 0.7239 | 1235.04 | 308.8
313.15 K, x1 = 0.807 | 1237.81 | 746.9
313.15 K, x1 = 1 | 1242.67 | 2426
318.15 K, x1 = 0.1255 | 1147.52 | 4.176
318.15 K, x1 = 0.2214 | 1183.79 | 10.2
318.15 K, x1 = 0.3165 | 1202.45 | 20.16
318.15 K, x1 = 0.4406 | 1216.5 | 46.03
318.15 K, x1 = 0.6319 | 1228.05 | 170.3
318.15 K, x1 = 0.7239 | 1231.83 | 240
318.15 K, x1 = 0.807 | 1234.63 | 526.7
318.15 K, x1 = 1 | 1239.51 | 1677
323.15 K, x1 = 0.1255 | 1144.26 | 3.673
323.15 K, x1 = 0.2214 | 1180.48 | 8.814
323.15 K, x1 = 0.3165 | 1199.19 | 16.96
323.15 K, x1 = 0.4406 | 1213.31 | 37.3
323.15 K, x1 = 0.6319 | 1224.95 | 130.6
323.15 K, x1 = 0.7239 | 1228.72 | 180.6
323.15 K, x1 = 0.807 | 1231.45 | 379.7
323.15 K, x1 = 1 | 1236.35 | 1129
328.15 K, x1 = 0.1255 | 1140.96 | 2.845
328.15 K, x1 = 0.2214 | 1177.17 | 7.649
328.15 K, x1 = 0.3165 | 1195.92 | 14.47
328.15 K, x1 = 0.4406 | 1210.11 | 30.77
328.15 K, x1 = 0.6319 | 1221.84 | 101.7
328.15 K, x1 = 0.7239 | 1225.53 | 138.4
328.15 K, x1 = 0.807 | 1228.26 | 280.6
328.15 K, x1 = 1 | 1233.2 | 779.3
333.15 K, x1 = 0.1255 | 1137.63 | 2.896
333.15 K, x1 = 0.2214 | 1173.83 | 6.732
333.15 K, x1 = 0.3165 | 1192.63 | 12.44
333.15 K, x1 = 0.4406 | 1206.91 | 25.72
333.15 K, x1 = 0.6319 | 1218.72 | 80.93
333.15 K, x1 = 0.7239 | 1222.36 | 108.1
333.15 K, x1 = 0.807 | 1225.07 | 211.6
333.15 K, x1 = 1 | 1230.06 | 552.3
338.15 K, x1 = 0.1255 | 1134.26 | 2.626
338.15 K, x1 = 0.2214 | 1170.4 | 5.925
338.15 K, x1 = 0.3165 | 1189.38 | 10.79
338.15 K, x1 = 0.4406 | 1203.71 | 21.68
338.15 K, x1 = 0.6319 | 1215.6 | 65
338.15 K, x1 = 0.7239 | 1219.28 | 85.65
338.15 K, x1 = 0.807 | 1221.94 | 162.7
338.15 K, x1 = 1 | 1226.93 | 400.8
343.15 K, x1 = 0.1255 | 1130.86 | 2.124
343.15 K, x1 = 0.2214 | 1167.12 | 5.3
343.15 K, x1 = 0.3165 | 1186.1 | 9.457
343.15 K, x1 = 0.4406 | 1200.5 | 18.46
343.15 K, x1 = 0.6319 | 1212.48 | 53
343.15 K, x1 = 0.7239 | 1216.18 | 68.72
343.15 K, x1 = 0.807 | 1218.8 | 126.8
343.15 K, x1 = 1 | 1223.81 | 297.3
